From ChEMBL document CHEMBL1201862, “PubChem BioAssay data set” (2004)
Several values for one entry are separate records, joined by “and”; a condition that tells them apart may be missing. Equal entries are not always repeated.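 Five concentrations, 48 hours, 96-well plates. GI50: concentration for 50% inhibition of growth.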 Activity calls are given as the source filed them. Cut-off read from the data, not from the text of the source: active = GI50 up to about 1.1 µM and inactive = higher.

Columns and labels:
Assay in all cases: inhibition of tumour cell growth, NCI panel, 48 h
[1] = tested on: OVCAR-4
[2] = tested on: HOP-92
[3] = tested on: CAKI-1
[4] = tested on: SF-268
[5] = tested on: NCI/ADR-RES
[6] = tested on: MDA-MB-231
[7] = tested on: UACC-62
[8] = tested on: Hs-578T
[9] = tested on: SK-MEL-5
[10] = tested on: U-251
[11] = tested on: MOLT-4
[12] = tested on: SK-OV-3
[13] = tested on: OVCAR-3
[14] = tested on: DU-145
[15] = tested on: KM12
[16] = tested on: Malme-3M
[17] = tested on: SF-295
[18] = tested on: HOP-62
[19] = tested on: 786-0
[20] = tested on: SK-MEL-28
[21] = tested on: SK-MEL-2
[22] = tested on: LOX IMVI
[23] = tested on: ACHN
[24] = tested on: PC-3
[25] = tested on: K562
[26] = tested on: HCT-116
[27] = tested on: OVCAR-5
[28] = tested on: SF-539
[29] = tested on: A549
[30] = tested on: OVCAR-8
[31] = tested on: IGROV-1
[32] = tested on: MDA-N
[33] = tested on: HCT-15
[34] = tested on: UO-31
[35] = tested on: A498
[36] = tested on: SNB-19
[37] = tested on: NCI-H23
[38] = tested on: NCI-H226
[39] = tested on: EKVX
[40] = tested on: SW-620
[41] = tested on: M14
[42] = tested on: SR
[43] = tested on: TK-10
[44] = tested on: MCF7
[45] = tested on: SNB-75
[46] = tested on: COLO 205
[47] = tested on: RPMI-8226
[48] = tested on: CCRF-CEM
[49] = tested on: SN12C
[50] = tested on: MDA-MB-435
[51] = tested on: UACC-257
[52] = tested on: HT-29
[53] = tested on: HCC 2998
[54] = tested on: RXF 393
[55] = tested on: T47D
[56] = tested on: HL-60
[57] = tested on: NCI-H460
[58] = tested on: NCI-H522

Measured: GI50

CC(=O)OCC1OC(n2c(=S)n(-c3ccccc3)c(=O)c3ccccc32)C(OC(C)=O)C(OC(C)=O)C1OC(C)=O (centres undefined)
inactive: [1] 55.8 µM and 48.1 µM | [2] 47.8 µM and 33.6 µM | [3] 91.8 µM and 83.4 µM

CCCC(=O)Oc1ccc2c(C)cc(=O)oc2c1OC(=O)CCC
31.8 µM: [33]
inactive: [4] 46.2 µM | [5] 33.2 µM | [6] 42.6 µM | [7] 60.3 µM | [8] 56.6 µM | [9] 56 µM | [10] 57.3 µM | [11] 50 µM | [12] > 100 µM | [13] 32.4 µM | [1] > 100 µM | [14] 50.4 µM | [15] 75.3 µM | [16] 24.3 µM | [17] 82.6 µM | [18] 71.3 µM | [19] 73.3 µM | [20] 54.2 µM | [21] > 100 µM | [22] 40.8 µM | [23] 49.5 µM | [24] 59.3 µM | [25] 60 µM | [26] 39.6 µM | [27] > 100 µM | [28] > 100 µM | [29] 31.6 µM | [30] 34.8 µM | [31] 45.7 µM | [32] > 100 µM | [2] 41.3 µM | [34] 60.1 µM | [35] 30.7 µM | [36] > 100 µM | [37] 48.8 µM | [38] 34.8 µM | [39] 70.5 µM | [40] 40.1 µM | [41] 48.6 µM | [42] 48.4 µM | [43] 50.4 µM | [44] 55.5 µM | [45] 40.6 µM | [46] 86.1 µM | [47] 26.4 µM | [48] 13.9 µM | [49] 76.6 µM | [50] 59.6 µM | [51] 36.1 µM | [52] 35.5 µM

Nc1nc(N)c2ncn(-c3ccccc3)c2n1
inactive: [6] 64.9 µM | [7] 41.5 µM | [8] 71 µM | [9] > 100 µM | [10] > 100 µM | [11] 38.7 µM | [15] 26.4 µM | [16] > 100 µM | [53] 56.1 µM | [18] > 100 µM | [19] > 100 µM | [21] 73.3 µM | [22] > 100 µM | [29] 43.6 µM | [31] 47.2 µM | [32] > 100 µM | [34] 36.9 µM | [3] 66.2 µM | [35] 60.4 µM | [54] 44.3 µM | [36] > 100 µM | [38] > 100 µM | [40] > 100 µM | [43] 54.2 µM | [44] 69.7 µM | [46] > 100 µM | [47] > 100 µM | [48] 24.9 µM | [49] 93.3 µM | [51] > 100 µM

COc1ccc(-c2cc(-c3ccccc3)c(C#N)c(=O)n2C2OC(COC(C)=O)C(OC(C)=O)C(OC(C)=O)C2OC(C)=O)cc1 (centres undefined)
inactive: [34] 67.6 µM and 42.4 µM

O=C1/C(=C/c2ccco2)NC(=S)N1CN1CCOCC1
> 100 µM: [33]
inactive: [4] > 100 µM | [5] > 100 µM | [6] > 100 µM | [7] > 100 µM | [8] > 100 µM | [9] > 100 µM | [10] > 100 µM | [11] > 100 µM | [12] > 100 µM | [13] > 100 µM | [1] > 100 µM | [14] > 100 µM | [15] > 100 µM | [17] > 100 µM | [18] > 100 µM | [19] > 100 µM | [20] > 100 µM | [21] > 100 µM | [22] > 100 µM | [23] > 100 µM | [24] > 100 µM | [25] > 100 µM | [26] > 100 µM | [27] > 100 µM | [29] > 100 µM | [30] > 100 µM | [31] > 100 µM | [32] > 100 µM | [2] > 100 µM | [34] > 100 µM | [35] > 100 µM | [36] > 100 µM | [37] > 100 µM | [38] > 100 µM | [39] > 100 µM | [40] > 100 µM | [41] > 100 µM | [42] > 100 µM | [43] > 100 µM | [44] > 100 µM | [45] > 100 µM | [46] > 100 µM | [47] > 100 µM | [48] > 100 µM | [49] > 100 µM | [50] > 100 µM | [51] > 100 µM | [52] > 100 µM

O=c1cc(NNc2ccccc2)[nH]c(=O)[nH]1
16.5 µM: [33]
inactive: [55] > 10 µM | [4] 25.7 µM | [5] 22.8 µM | [56] 18.2 µM | [6] 15.8 µM | [7] 14.8 µM | [8] 80.7 µM | [9] 80.9 µM | [10] 16.1 µM | [11] 27.2 µM | [12] > 100 µM | [13] 17.2 µM | [1] 16 µM | [14] > 100 µM | [15] 18.8 µM | [16] 19.8 µM | [17] 37.9 µM | [53] 19.9 µM | [18] 85.3 µM | [19] 15.8 µM | [20] 11.2 µM | [22] 19.8 µM | [23] 13.3 µM | [24] 21.9 µM | [25] 24.1 µM | [26] 18.1 µM | [27] > 100 µM | [28] 71.6 µM | [29] > 100 µM | [30] 23.4 µM | [31] 34.9 µM | [32] 20.2 µM | [35] > 100 µM | [36] 21.1 µM | [37] 56.8 µM | [38] 19 µM | [57] 27.5 µM | [39] > 100 µM | [40] > 10 µM | [42] 28.2 µM | [43] 47.3 µM | [44] 12.9 µM | [58] 20.5 µM | [46] 17.9 µM | [47] 11.1 µM | [48] 27.5 µM | [49] 25.9 µM | [50] 19 µM | [51] 16.1 µM | [52] 22.1 µM

O=C1C=CC(=O)c2c(O)nc(CBr)nc21
inactive: [55] > 100 µM | [4] > 100 µM | [5] > 100 µM | [56] 14.9 µM | [6] 61 µM | [7] 46.5 µM | [8] > 100 µM | [9] 44.9 µM | [10] 95.9 µM | [11] > 100 µM | [12] > 100 µM | [13] > 100 µM | [1] > 100 µM | [14] > 100 µM | [15] 52 µM | [16] > 100 µM | [17] 68.9 µM | [53] > 100 µM | [18] > 100 µM | [19] > 100 µM | [20] > 100 µM | [21] > 100 µM | [22] > 100 µM | [23] > 100 µM | [24] 42.2 µM | [25] 94.4 µM | [26] 56.8 µM | [27] > 100 µM | [28] > 100 µM | [29] > 100 µM | [30] > 100 µM | [31] > 100 µM | [32] 36.1 µM | [34] > 100 µM | [3] > 100 µM | [35] 82.6 µM | [54] > 100 µM | [37] 80.5 µM | [39] > 100 µM | [41] 61.5 µM | [44] 56.2 µM | [58] > 100 µM | [45] > 100 µM | [46] > 100 µM | [47] 97.9 µM | [49] 38.5 µM | [50] 30.4 µM | [51] > 100 µM | [52] 60.5 µM
> 100 µM: [33]

CC(=O)OC(C)(C)/C(C)=C/C(=O)O[C@H]1C(=O)O[C@@H]2C[C@H]3[C@H](C)C(=O)C(O[C@@H]4O[C@H](CO)[C@@H](O)[C@H](O)[C@H]4O)=C[C@]3(C)[C@H]3[C@@H](O)[C@H](O)[C@@]4(C(=O)O)OC[C@]32[C@@H]14 [Bruceoside-F]
inactive: [9] > 10 µM | [10] 87.3 µM | [20] 79.3 µM | [22] 81.3 µM
